From patent US10376481B2, “Compounds and methods for inhibiting NHE-mediated antiport in the treatment of disorders associated with fluid retention or salt overload and gastrointestinal tract disorders” (ARDELYX, INC, priority 2012, dated 2019) come the findings set out here.

One data set in a line: Fecal recovery. The class given is in vivo, Sprague Dawley rats. To be noted: male, Sprague-Dawley, faeces; rat, oral gavage 1 mg/kg, collection time 48 h. Here is the method: Three male Sprague Dawley rats were administered 1 mg/kg test compound by oral gavage. Feces were collected from study animals from 0-48 or 0-72 hours after dosing, dried by lyophilization, and homogenized. Replicate aliquots of 40-60 mg each were subjected to extraction/protein precipitation with 7:1 acetonitrile:water and centrifuged. Supernatants were diluted 1:10 in 50:50 acetonitrile:water prior to analysis by LC-MS/MS. Compound concentrations, determined by interpolation from a standard calibration curve prepared in blank feces matrix, were converted to the percentage of dosed material recovered by taking into account the total collected fecal matter. The percent recovery for each rat was reported as the mean of the calculations from replicate samples. The overall percent recovery (Fecal Recovery [%]) was reported as the mean percent recovery from three rats. Accurate quality control sample recoveries were confirmed in each run and extraction efficiency was periodically verified.

Data set [1] concerns absorption of sodium from the intestinal lumen. The experiment in a line: Inhibition of intestinal sodium absorption: rat urinary sodium and fecal form 16 h post-dose. The data set is classed as in vivo, Sprague-Dawley rats. Particulars: oral gavage 10 mg/kg; for response vs control in vivo at 10 mg/kg: urine 16 h post-dose, read-out: uNa Result, uNa (% of vehicle); for FFS (fecal form score): 16 h post-dose, scale 1-5, group average. The method, then: Urinary sodium concentration and fecal form were measured to assess the ability of selected example compounds to inhibit the absorption of sodium from the intestinal lumen. Eight-week old Sprague-Dawley rats were purchased from Charles River Laboratories (Hollister, Calif.), were housed 2 per cage, and acclimated for at least 3 days before study initiation. Animals were fed Harlan Teklad Global 2018 rodent chow (Indianapolis, Ind.) and water ad libitum throughout the study and maintained in a standard light/dark cycle of 6 AM to 6 PM. On the day of the study, between 4 PM and 5 PM, a group of rats (n=6) were dosed via oral gavage with test compound or vehicle (water) at a volume of 10 mL/kg. After dose administration animals were placed in individual metabolic cages where they were also fed the same chow in meal form and watered ad libitum. At 16 h post-dose, the urine samples were collected and fecal form was assessed by two independent observations. Fecal forms were scored according to a common scale associated with increasing fecal water to the wettest observation in the cage's collection funnel (1, normal pellet; 2, pellet adhering to sides of collection funnel due to moisture; 3, loss of normal pellet shape; 4, complete loss of shape with a blotting pattern; 5, liquid fecal streams evident). A rat's fecal form score (FFS) was determined by averaging both observational scores for all rats within a group (n=6). The vehicle group average was 1. For urine samples, the volumes were determined gravimetrically and centrifuged at 3,600×g. The supernatants were diluted 100-fold in deionized Milli-Q water then filtered through a 0.2 μm GHP Pall AcroPrep filter plate (Pall Life Sciences, Ann Arbor, Mich.) prior to analysis by ion chromatography. Ten microliters of each filtered extract was injected onto a Dionex ICS-3000 ion chromatograph system (Dionex, Sunnyvale, Calif.). Cations were separated by an isocratic method using 25 mM methanesulfonic acid as the eluent on an IonPac CS12A 2 mm i.d.×250 mm, 8 μm particle size cation exchange column (Dionex). Sodium was quantified using standards prepared from a cation standard mix containing Li^+, Na^+, NH4^+, K^+, Mg^2+, and Ca^2+ (Dionex). The mean mass of sodium urinated for every group in the 16 h period was determined with the vehicle group usually urinating approximately 21 mg sodium. The urine Na (uNa) for rats in the test groups were expressed as a percentage of the vehicle mean and the means were compared to that of the vehicle group by utilizing a one-way analysis of variance coupled with a Dunnett's post hoc test.

The target in another data set is T1, human NHE3 (Homo sapiens, UniProt P48764).
T1 sequence (P48764 26-834): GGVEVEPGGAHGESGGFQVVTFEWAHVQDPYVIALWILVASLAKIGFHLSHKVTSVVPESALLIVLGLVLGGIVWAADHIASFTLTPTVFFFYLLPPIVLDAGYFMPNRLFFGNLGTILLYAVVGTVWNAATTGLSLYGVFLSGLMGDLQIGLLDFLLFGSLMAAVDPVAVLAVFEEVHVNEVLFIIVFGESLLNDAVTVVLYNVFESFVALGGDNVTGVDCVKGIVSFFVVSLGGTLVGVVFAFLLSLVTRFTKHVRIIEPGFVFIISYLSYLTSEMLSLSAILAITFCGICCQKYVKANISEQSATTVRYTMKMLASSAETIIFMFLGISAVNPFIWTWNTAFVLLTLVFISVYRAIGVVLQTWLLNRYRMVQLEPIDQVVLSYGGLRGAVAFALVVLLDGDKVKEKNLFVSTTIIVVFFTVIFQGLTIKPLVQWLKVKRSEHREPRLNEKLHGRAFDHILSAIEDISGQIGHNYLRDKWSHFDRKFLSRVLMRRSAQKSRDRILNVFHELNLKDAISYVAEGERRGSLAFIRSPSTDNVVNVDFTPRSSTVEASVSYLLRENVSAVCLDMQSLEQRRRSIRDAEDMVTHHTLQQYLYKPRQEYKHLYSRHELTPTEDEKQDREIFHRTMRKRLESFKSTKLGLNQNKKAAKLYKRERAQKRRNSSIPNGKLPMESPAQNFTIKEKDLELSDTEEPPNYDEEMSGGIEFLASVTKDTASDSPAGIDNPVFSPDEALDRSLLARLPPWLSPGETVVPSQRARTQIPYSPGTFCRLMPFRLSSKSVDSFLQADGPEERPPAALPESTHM
The experiment in a line: Cell-based assay of NHE-3 activity (human NHE3 inhibition assay). On the set-up: expressed in transfected cells; host or cells: Opossum kidney (OK) cells (ATCC), electroporated. Particulars: OK cells with human NHE-3 gene, BCECF pH recovery, 0-30 μM test compound; read-out: Human NHE3 pIC50 (converted). A digest of the protocol: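 Opossum kidney cells electroporated with rat or human NHE-3, loaded with 5 μM BCECF-AM in NH4Cl-HEPES pH 7.4 for 30 min at RT, then acidified 10 min in Na+-free choline HEPES. Na+-dependent pH recovery rates from BCECF fluorescence, averaged over ≥2 replicates, gave pIC50.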

`N[C@@H]1CCCN([C@H]2Cc3c(Cl)cc(Cl)cc3[C@@H]2Oc2ccc(S(=O)(=O)NCCOCCOCCNC(=O)NCCCCNC(=O)NCCOCCOCCNS(=O)(=O)c3ccc(O[C@H]4c5cc(Cl)cc(Cl)c5C[C@@H]4N4CCC[C@@H](N)C4)cc3)cc2)C1` [Example 3, (S,S,R)—N,N′-(10,17-dioxo-3,6,21,24-tetraoxa-9,11,16,18-tetraazahexacosane-1,26-diyl)bis(4-((1S,2S)-2-((R)-3-aminopiperidin-1-yl)-4,6-dichloro-2,3-dihydro-1H-inden-1-yloxy)benzenesulfonamide)] had a dose excreted in “Fecal recovery” of 69.2%. In addition, the response vs control in vivo at 10 mg/kg in data set [1] was in the range of 35 to 75%. Moreover, at human NHE3, the IC50 is below 100 nM.
`O=C(NCCCCNC(=O)NCCOCCOCCOCCNS(=O)(=O)c1ccc(O[C@H]2c3ccccc3C[C@@H]2N2CCCCC2)cc1)NCCOCCOCCOCCNS(=O)(=O)c1ccc(O[C@H]2c3ccccc3C[C@@H]2N2CCCCC2)cc1` [Example 16]: the response vs control in vivo at 10 mg/kg in data set [1] is below 35%. The IC50 on human NHE3 is below 100 nM.
For the compound `CN(C)[C@H]1Cc2c(F)cc(Cl)cc2[C@@H]1Oc1ccc(S(=O)(=O)NCCOCCOCCNC(=O)NCCCCNC(=O)NCCOCCOCCNS(=O)(=O)c2ccc(O[C@H]3c4cc(Cl)cc(F)c4C[C@@H]3N(C)C)cc2)cc1` [Example 25], the response vs control in vivo at 10 mg/kg in data set [1] was above 75%. The IC50 at human NHE3 was below 100 nM.
As to `O=C(NCCCCNC(=O)NCCOCCOCCNS(=O)(=O)c1ccc(O[C@H]2c3cc(Cl)cc(F)c3C[C@@H]2N2CC[C@@H](O)C2)cc1)NCCOCCOCCNS(=O)(=O)c1ccc(O[C@H]2c3cc(Cl)cc(F)c3C[C@@H]2N2CC[C@@H](O)C2)cc1` [Example 4, (S,S,R)—N,N′-(10,17-dioxo-3,6,21,24-tetraoxa-9,11,16,18-tetraazahexacosane-1,26-diyl)bis(4-((1S,2S)-6-chloro-4-fluoro-2-((R)-3-hydroxypyrrolidin-1-yl)-2,3-dihydro-1H-inden-1-yloxy)benzenesulfonamide)], in data set [1], the “FFS (fecal form score)” value worked out at 1 and the response vs control in vivo at 10 mg/kg is above 75%. Further, the IC50 on human NHE3 is below 100 nM.
For `CN(C)[C@H]1Cc2ccc(F)cc2[C@@H]1Oc1ccc(S(=O)(=O)NCCOCCOCCNC(=O)NCCCCNC(=O)NCCOCCOCCNS(=O)(=O)c2ccc(O[C@H]3c4cc(F)ccc4C[C@@H]3N(C)C)cc2)cc1` [Example 22], the response vs control in vivo at 10 mg/kg in data set [1] was above 75%. Besides, the IC50 on human NHE3 was below 100 nM.
The matching figures for `O=C(NCCCCNC(=O)NCCOCCOCCNS(=O)(=O)c1ccc(O[C@H]2c3cc(Cl)cc(Cl)c3C[C@@H]2N2CCCCC2)cc1)NCCOCCOCCNS(=O)(=O)c1ccc(O[C@H]2c3cc(Cl)cc(Cl)c3C[C@@H]2N2CCCCC2)cc1` [Example 15]: 35 to 75% and above 10000 nM.
As for `CN(C)[C@H]1Cc2c(Cl)cc(Cl)cc2[C@@H]1Oc1ccc(S(=O)(=O)NCCOCCOCCNC(=O)[C@H](O)[C@@H](O)C(=O)NCCOCCOCCNS(=O)(=O)c2ccc(O[C@H]3c4cc(Cl)cc(Cl)c4C[C@@H]3N(C)C)cc2)cc1` [Example 5, (2R,3R)—N1,N4-bis(2-(2-(2-(4-((1S,2S)-4,6-dichloro-2-(dimethylamino)-2,3-dihydro-1H-inden-1-yloxy)phenylsulfonamido)ethoxy)ethoxy)ethyl)-2,3-dihydroxysuccinamide], in data set [1], the “FFS (fecal form score)” value was found to be 1 and the response vs control in vivo at 10 mg/kg was below 35%. Further, the IC50 on human NHE3 was below 100 nM.
Turning to `O=C(NCCCCNC(=O)NCCOCCOCCNS(=O)(=O)c1ccc(O[C@H]2c3cc(F)ccc3C[C@@H]2N2CCCCC2)cc1)NCCOCCOCCNS(=O)(=O)c1ccc(O[C@H]2c3cc(F)ccc3C[C@@H]2N2CCCCC2)cc1` [Example 23], in data set [1], the “FFS (fecal form score)” value amounted to 1 and the response vs control in vivo at 10 mg/kg is above 75%. Further, the IC50 at human NHE3 is below 100 nM.
The matching figures for `CN(C)[C@H]1Cc2c(Cl)cc(Cl)cc2[C@@H]1Oc1ccc(S(=O)(=O)NCCOCCOCCNC(=O)C(C)(C)C(=O)NCCOCCOCCNS(=O)(=O)c2ccc(O[C@H]3c4cc(Cl)cc(Cl)c4C[C@@H]3N(C)C)cc2)cc1` [Example 36]: 2, 35 to 75% and below 100 nM.
Consider `CN(C)[C@H]1Cc2ccccc2[C@@H]1Oc1ccc(S(=O)(=O)NCCOCCOCCNC(=O)NCCCCNC(=O)NCCOCCOCCNS(=O)(=O)c2ccc(O[C@H]3c4ccccc4C[C@@H]3N(C)C)cc2)cc1` [Example 20], for which the response vs control in vivo at 10 mg/kg in data set [1] is 35 to 75%. The IC50 at human NHE3 was below 100 nM.
Taken in the same sequence, the figures for `CN(C)[C@H]1Cc2ccc(Cl)cc2[C@@H]1Oc1ccc(S(=O)(=O)NCCOCCOCCNC(=O)NCCCCNC(=O)NCCOCCOCCNS(=O)(=O)c2ccc(O[C@H]3c4cc(Cl)ccc4C[C@@H]3N(C)C)cc2)cc1` [Example 21] were above 75% and below 100 nM.
Taken in the same sequence, the figures for `O=C(NCCCCNC(=O)NCCOCCOCCNS(=O)(=O)c1ccc(O[C@H]2c3cc(Cl)cc(F)c3C[C@@H]2N2CCCCC2)cc1)NCCOCCOCCNS(=O)(=O)c1ccc(O[C@H]2c3cc(Cl)cc(F)c3C[C@@H]2N2CCCCC2)cc1` [Example 24] were above 75% and below 100 nM.
Turning to `O=C(NCCCCNC(=O)NCCOCCOCCNS(=O)(=O)c1ccc(O[C@H]2c3ccccc3C[C@@H]2N2CCCCC2)cc1)NCCOCCOCCNS(=O)(=O)c1ccc(O[C@H]2c3ccccc3C[C@@H]2N2CCCCC2)cc1` [Example 14], the response vs control in vivo at 10 mg/kg in data set [1] fell in the range of 35 to 75%. Besides, the IC50 at human NHE3 is below 100 nM.
Taken in the same sequence, the figures for `O=C(NCCCCNC(=O)NCCOCCOCCNC(=O)Nc1cccc(O[C@H]2c3ccccc3C[C@@H]2N2CCCCC2)c1)NCCOCCOCCNC(=O)Nc1cccc(O[C@H]2c3ccccc3C[C@@H]2N2CCCCC2)c1` [Example 13, 1-{2-[2-(2-{[(3-{[(1S,2S)-2-(piperidin-1-yl)-2,3-dihydro-1H-inden-1-yl]oxy}phenyl)carbamoyl]amino}ethoxy)ethoxy]ethyl}-3-{4-[({2-[2-(2-{[(3-{[(1S,2S)-2-(piperidin-1-yl)-2,3-dihydro-1H-inden-1-yl]oxy}phenyl)carbamoyl]amino}ethoxy)ethoxy]ethyl}carbamoyl)amino]butyl}urea] were above 75% and 100 to 10000 nM.
